# Data as given in patent US12595253B2, “Benzamides of pyrazolylamino-pyrimidinyl derivatives, and compositions and methods thereof” (LYNK PHARMACEUTICALS CO. LTD., priority 2019, dated 2026).
# Legend:
# [1] = molecular target: T1, CYP2C9 (Homo sapiens, UniProt P11712); assay: CYPs inhibition in pooled human liver microsomes, probe substrate Diclofenac; type: in vitro ADME
# T1 construct: 0.2 mg/mL human liver microsomes was pre-incubated in 180 μL reaction mixture; from tissue; host or cells: pooled human liver microsomes
# T1 sequence (P11712 whole entry): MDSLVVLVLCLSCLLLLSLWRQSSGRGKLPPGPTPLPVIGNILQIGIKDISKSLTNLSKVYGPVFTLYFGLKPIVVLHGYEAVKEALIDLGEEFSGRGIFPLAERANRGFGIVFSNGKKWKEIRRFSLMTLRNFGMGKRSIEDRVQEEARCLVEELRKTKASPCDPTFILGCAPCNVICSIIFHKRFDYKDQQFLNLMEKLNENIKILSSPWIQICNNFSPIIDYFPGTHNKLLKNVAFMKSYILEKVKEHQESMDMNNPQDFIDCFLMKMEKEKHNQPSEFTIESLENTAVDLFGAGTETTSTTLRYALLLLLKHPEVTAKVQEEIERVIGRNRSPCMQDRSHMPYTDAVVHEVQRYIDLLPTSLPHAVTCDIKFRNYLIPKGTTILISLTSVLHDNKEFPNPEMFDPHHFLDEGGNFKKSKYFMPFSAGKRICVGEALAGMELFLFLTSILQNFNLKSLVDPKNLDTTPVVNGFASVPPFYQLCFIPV
# Experimental: (§1) The inhibitory potential of test articles in pooled human liver microsomes was evaluated by the method using a cocktail of CYP substrates. […] For the negative control well, the test articles was replaced with 20 μL reaction buffer. After 10 min of pre-incubation at 37° C., 20 μL 10 mM NADPH cofactor was added to the pre-reaction mixtures. After another 10 min incubation, the reaction was stopped by adding 400 μL of ice cold acetonitrile solution containing tolbutamide and labetalol served as internal standards. The incubation mixtures were centrifuged at 4000×g for 20 min, and then the supernatants were analyzed by LC-MS/MS after dilution. SigmaPlot was applied to plot % control activity versus the test compound concentrations, and for non-linear regression analysis of the data. IC50 values of test articles were determined using 3-parameter logistic equation.
# [2] = molecular target: T2, CYP2D6 (Homo sapiens, UniProt P10635); assay: CYPs inhibition in pooled human liver microsomes, probe substrate Dextromethorphan; type: in vitro ADME
# T2 construct: 0.2 mg/mL human liver microsomes was pre-incubated in 180 μL reaction mixture; from tissue; host or cells: pooled human liver microsomes
# T2 sequence (P10635 whole entry): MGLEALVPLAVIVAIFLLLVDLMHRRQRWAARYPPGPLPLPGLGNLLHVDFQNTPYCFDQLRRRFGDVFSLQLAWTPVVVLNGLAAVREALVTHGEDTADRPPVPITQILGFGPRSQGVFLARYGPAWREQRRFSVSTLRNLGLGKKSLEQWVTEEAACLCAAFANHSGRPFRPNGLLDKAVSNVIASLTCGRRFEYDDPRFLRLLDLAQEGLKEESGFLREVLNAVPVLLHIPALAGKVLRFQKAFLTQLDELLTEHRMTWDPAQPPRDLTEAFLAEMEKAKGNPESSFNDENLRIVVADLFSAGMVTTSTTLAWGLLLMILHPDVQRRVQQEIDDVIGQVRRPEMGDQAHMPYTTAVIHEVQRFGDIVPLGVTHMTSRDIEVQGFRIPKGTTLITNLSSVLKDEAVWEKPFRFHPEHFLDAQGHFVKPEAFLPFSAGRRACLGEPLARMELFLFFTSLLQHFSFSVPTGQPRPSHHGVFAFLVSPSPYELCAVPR
# Experimental: as §1
# [3] = molecular target: T3, JAK2V617F (Homo sapiens, UniProt O60674, V617F); assay: JAK2V617F microfluidic kinase assay (Caliper EZ Reader II, FAM labeled peptide substrate); type: biochemical; conditions: JAK2V617F 2.5 nM, 1 mM ATP
# T3 construct: purchased Carna Biosciences
# T3 sequence (O60674 whole entry V617F): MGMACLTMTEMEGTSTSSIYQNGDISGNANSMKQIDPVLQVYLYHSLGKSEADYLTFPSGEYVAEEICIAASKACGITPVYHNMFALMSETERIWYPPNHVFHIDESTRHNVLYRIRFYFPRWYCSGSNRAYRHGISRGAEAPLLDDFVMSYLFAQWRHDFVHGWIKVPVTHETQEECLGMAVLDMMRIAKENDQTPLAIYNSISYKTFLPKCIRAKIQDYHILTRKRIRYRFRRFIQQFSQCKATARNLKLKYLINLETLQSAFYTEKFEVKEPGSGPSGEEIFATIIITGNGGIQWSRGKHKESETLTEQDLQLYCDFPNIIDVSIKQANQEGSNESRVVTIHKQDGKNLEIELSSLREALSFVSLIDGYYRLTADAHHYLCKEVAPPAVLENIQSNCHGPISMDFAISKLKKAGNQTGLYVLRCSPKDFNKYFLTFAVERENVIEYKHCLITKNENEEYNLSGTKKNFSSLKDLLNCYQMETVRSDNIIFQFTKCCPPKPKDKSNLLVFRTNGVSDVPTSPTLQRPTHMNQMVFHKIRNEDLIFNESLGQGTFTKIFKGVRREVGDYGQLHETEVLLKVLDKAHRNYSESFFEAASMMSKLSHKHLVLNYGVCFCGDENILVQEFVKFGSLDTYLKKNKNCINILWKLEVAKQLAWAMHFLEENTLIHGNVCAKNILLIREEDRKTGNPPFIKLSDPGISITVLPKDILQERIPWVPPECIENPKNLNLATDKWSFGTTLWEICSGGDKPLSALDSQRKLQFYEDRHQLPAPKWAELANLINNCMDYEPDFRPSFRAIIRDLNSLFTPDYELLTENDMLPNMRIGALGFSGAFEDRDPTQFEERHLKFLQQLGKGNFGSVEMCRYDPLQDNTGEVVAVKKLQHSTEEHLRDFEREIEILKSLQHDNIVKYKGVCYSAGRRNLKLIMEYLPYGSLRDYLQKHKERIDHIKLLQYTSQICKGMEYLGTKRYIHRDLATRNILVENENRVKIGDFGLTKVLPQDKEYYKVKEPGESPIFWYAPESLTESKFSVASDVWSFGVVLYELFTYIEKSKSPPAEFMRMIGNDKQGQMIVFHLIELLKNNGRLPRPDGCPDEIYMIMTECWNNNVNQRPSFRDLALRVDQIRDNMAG
# In short: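 Compounds, serially diluted 3-fold from 5 μM, were preincubated 10 min with enzyme at ambient temperature before reaction in HEPES/Brij35/MgCl2/DTT buffer (1% DMSO final), tuned to 10% peptide conversion. After EDTA stop, FAM-peptide phosphorylation was measured by Caliper EZ Reader II; IC50 fitted from percent-inhibition curves.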
# [4] = molecular target: T4, FLT3D835Y (Homo sapiens, UniProt P36888, D835Y); assay: FLT3D835Y microfluidic kinase assay; type: biochemical
# T4 construct: purchased Carna Biosciences
# T4 sequence (P36888 27-993 D835Y): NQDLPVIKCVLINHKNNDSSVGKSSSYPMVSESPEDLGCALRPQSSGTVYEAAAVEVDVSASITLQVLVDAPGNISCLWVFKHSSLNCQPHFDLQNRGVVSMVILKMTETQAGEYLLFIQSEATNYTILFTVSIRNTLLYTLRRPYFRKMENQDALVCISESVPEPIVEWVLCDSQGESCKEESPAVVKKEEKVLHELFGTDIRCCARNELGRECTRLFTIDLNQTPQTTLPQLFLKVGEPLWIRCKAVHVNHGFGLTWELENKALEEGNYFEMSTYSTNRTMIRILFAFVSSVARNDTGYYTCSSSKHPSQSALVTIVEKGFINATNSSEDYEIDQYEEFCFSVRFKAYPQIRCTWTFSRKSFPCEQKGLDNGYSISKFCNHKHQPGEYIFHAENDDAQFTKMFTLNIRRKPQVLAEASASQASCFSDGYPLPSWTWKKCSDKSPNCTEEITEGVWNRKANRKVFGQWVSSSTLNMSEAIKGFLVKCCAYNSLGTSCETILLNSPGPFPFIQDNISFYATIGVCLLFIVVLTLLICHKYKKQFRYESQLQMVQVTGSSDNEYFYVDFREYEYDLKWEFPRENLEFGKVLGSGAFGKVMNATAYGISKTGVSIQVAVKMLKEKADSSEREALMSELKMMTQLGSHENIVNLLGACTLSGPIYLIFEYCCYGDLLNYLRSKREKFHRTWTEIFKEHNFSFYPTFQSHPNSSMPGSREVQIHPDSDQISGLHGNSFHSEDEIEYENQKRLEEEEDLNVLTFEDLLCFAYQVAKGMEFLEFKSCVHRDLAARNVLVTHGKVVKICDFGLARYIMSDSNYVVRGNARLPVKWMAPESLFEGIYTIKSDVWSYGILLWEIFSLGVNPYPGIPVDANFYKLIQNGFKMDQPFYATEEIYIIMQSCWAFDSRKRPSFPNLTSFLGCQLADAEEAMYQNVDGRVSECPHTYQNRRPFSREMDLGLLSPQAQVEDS
# Experimental: Compounds were tested against FLT3, FLT3ITD and FLT3D835Y.
# Assay Formats: FLT3 activity was determined in the reaction buffer 50 mM HEPES, 10 mM MgCl2 and 2 mM DTT by a microfluidic assay. The phosphorylation of a FAM labeled peptide substrate was monitored in the Caliper EZ Reader II (Perkin Elmer). The assay condition for each batch of enzyme (Carna Biosciences) was optimized to obtain 10% conversion rate of peptide substrate.
# The test compounds were dissolved in DMSO to a stock concentration of 10 mM. 3-fold serially diluted compounds with top concentration of 5 μM were pre-incubated with FLT3, FLT3ITD or FLT3D835Y for 10 min at ambient temperature. The final DMSO concentration of assay mixture was 1%. […] The reaction was stopped by adding 50 mM EITA. The reaction time for FLT3, FLT3ITD and FLT3D8335Y was 30 min, 40 min and 40 min, respectively.
# And the well without compound but with equivalent DMSO was defined as no inhibition. The percent inhibition was calculated by the following formula. % Inhibition=(Conversionmax−Conversionsample)/(Conversionmax−Conversionmin)*100 • Conversionmax means the conversion rate in the positive well without addition of compound • Conversionmin means the conversion rate in the well without addition of enzyme • Conversionsample means the conversion rate of test compounds
# The dose-response (percent inhibition) curve was plotted and IC50 values were determined by GraphPad software.
IC50 [1] [µM],IC50 [2] [µM],IC50 [3] [µM],IC50 [4] [µM],Structure (SMILES)
3.18,42,,,"CC[C@@H](C#N)NC(=O)c1ccc(-c2nc(Nc3cnn(C4CCNCC4)c3)ncc2Cl)cc1 [Example 183, (S)-4-(5-chloro-2-((1-(piperidin-4-yl)-1H-pyrazol-4-yl)amino)pyrimidin-4-yl)-N-(1-cyanopropyl)benzamide]"
,,0.0348,0.0115,"CC[C@@H](C#N)NC(=O)c1ccc(-c2nc(Nc3cnn(C4CC4)c3)ncc2Cl)cc1 [Example 61, (S)-4-(5-chloro-2-((1-cyclopropyl-1H-pyrazol-4-yl)amino)pyrimidin-4-yl)-N-(1-cyanopropyl)benzamide]"
19,> 50,,,"C[C@@H](C#N)NC(=O)c1ccc(-c2nc(Nc3cnn(C4CCNCC4)c3)ncc2Cl)cc1 [Example 165, (S)-4-(5-chloro-2-((1-(piperidin-4-yl)-1H-pyrazol-4-yl)amino)pyrimidin-4-yl)-N-(1-cyanoethyl)benzamide]"
,,> 5,2.04,"CNC(=O)c1ccc(-c2nc(Nc3cnn(C)c3)ncc2C)cc1 [Example 10, N-Methyl-4-(5-methyl-2-((1-methyl-1H-pyrazol-4-yl)amino)pyrimidin-4-yl)benzamide]"
,,0.0253,,"N#CCNC(=O)c1ccc(-c2nc(Nc3cnn(C4CC4)c3)ncc2Cl)cc1 [Example 95, 4-(5-Chloro-2-((1-cyclopropyl-1H-pyrazol-4-yl)amino)pyrimidin-4-yl)-N-(cyanomethyl)benzamide]"
> 50,> 50,0.00096,,"Cc1cnc(Nc2cnn(C3CCN(C(=O)CO)CC3)c2)nc1-c1ccc(C(=O)N[C@@H](C)C#N)cc1 [Example 119, (S)—N-(1-cyanoethyl)-4-(2-((1-(1-(2-hydroxyacetyl)piperidin-4-yl)-1H-pyrazol-4-yl)amino)-5-methylpyrimidin-4-yl)benzamide]"
> 50,> 50,0.0452,,"C[C@@H](C#N)NC(=O)c1ccc(-c2nc(Nc3cnn(C4CCN(C)CC4)c3)ncc2Cl)cc1 [Example 43, (S)-4-(5-Chloro-2-((1-(1-methylpiperidin-4-yl)-1H-pyrazol-4-yl)amino)pyrimidin-4-yl)-N-(1-cyanoethyl)benzamide]"
> 50,> 50,,,"CC[C@@H](C#N)NC(=O)c1ccc(-c2nc(Nc3cnn(C4CCN(C)CC4)c3)ncc2C)cc1 [Example 184, (S)—N-(1-Cyanopropyl)-4-(5-methyl-2-((1-(1-methylpiperidin-4-yl)-1H-pyrazol-4-yl)amino)pyrimidin-4-yl)benzamide]"
,,,0.0155,"Cn1cc(Nc2ncc(Cl)c(-c3ccc(C(=O)NCC#N)cc3)n2)cn1 [Example 34, 4-(5-Chloro-2-((1-methyl-1H-pyrazol-4-yl)amino)pyrimidin-4-yl)-N-(cyanomethyl)benzamide]"
,,> 5,4.32,"CCNC(=O)c1ccc(-c2nc(Nc3cnn(C)c3)ncc2C)cc1 [Example 222, N-ethyl-4-(5-methyl-2-((1-methyl-1H-pyrazol-4-yl)amino)pyrimidin-4-yl)benzamide]"
> 50,> 50,0.109,,"Cc1cnc(Nc2cnn(CC#N)c2)nc1-c1ccc(C(=O)NCC#N)cc1 [Example 4, N-(Cyanomethyl)-4-(2-((1-(cyanomethyl)-1H-pyrazol-4-yl)amino)-5-methylpyrimidin-4-yl)benzamide]"
14.1,35.4,,,"Cc1cnc(Nc2cnn(C3CC(C)(C)OC(C)(C)C3)c2)nc1-c1ccc(C(=O)NCC#N)cc1 [Example 113, N-(cyanomethyl)-4-(5-methyl-2-((1-(2,2,6,6-tetramethyltetrahydro-2H-pyran-4-yl)-1H-pyrazol-4-yl)amino)pyrimidin-4-yl)benzamide]"
,,4.54,2.83,"Cc1cnc(Nc2cnn(C)c2)nc1-c1ccc(C(=O)NC(C)C)cc1 [Example 223, N-isopropyl-4-(5-methyl-2-((1-methyl-1H-pyrazol-4-yl)amino)pyrimidin-4-yl)benzamide]"
,,0.0314,0.0119,"C[C@@H](C#N)NC(=O)c1ccc(-c2nc(Nc3cnn(C4CC4)c3)ncc2Cl)cc1 [Example 111, (S)-4-(5-Chloro-2-((1-cyclopropyl-1H-pyrazol-4-yl)amino)pyrimidin-4-yl)-N-(1-cyanoethyl)benzamide]"
,,,0.0438,"C[C@@H](C#N)NC(=O)c1ccc(-c2nc(Nc3cnn(C)c3)ncc2Cl)cc1 [Example 125, (S)-4-(5-chloro-2-((1-methyl-1H-pyrazol-4-yl)amino)pyrimidin-4-yl)-N-(1-cyanoethyl)benzamide]"
